{"source": "patent US11668702B2", "about": "“Regulation of fungal fruiting body development” (The Chinese University of Hong Kong, priority 2017, dated 2023)", "key": {"[1]": {"tested_on": "C. cinerea", "experiment": "Fruiting body development of C. cinerea on YMG agar with LiCl in or under the agar"}, "[2]": {"tested_on": "C. cinerea", "experiment": "LiCl clearance and fruiting body formation (Example 3)", "format": "cell-based, Coprinopsis cinerea", "settings": "washing mycelium and substrate with ddH2O or transfer onto clean substrate", "source_text": "The LiCl inhibition of C. cinerea mycelium can be relieved by removing LiCl or diluting the concentration of LiCl, for example, by washing the mycelium and substrate with ddH2O, or by transferring the mycelium onto a clean substrate."}, "[3]": {"tested_on": "Pleurotus djamor", "experiment": "Pleurotus djamor fruiting body development, LiCl in YMG agar", "format": "cell-based", "settings": "2 g/L LiCl in YMG agar; 10 days dark at 27° C., 10 days light/dark cycle at 25° C.", "procedure": "FIG. 12: Effect on Pleurotus djamor fruiting body development by GSK3 inhibitor-LiCl at different concentration. LiCl was added to YMG agar medium before autoclave. After 10-days all dark incubation in 27° C., the plates were transferred to 25° C. with 12-hours light and 12-hours dark cycle (light/dark cycle) for 10-days incubation. Mature fruiting bodies developed on the control plates.\nLiCl was added to YMG agar medium before autoclave. After 10-days all dark incubation in 27° C., the plates were transferred to 25° C. with 12-hours light and 12-hours dark cycle (light/dark cycle) for 10-days incubation. Mature fruiting bodies developed on the control plates."}, "[4]": {"tested_on": "C. cinerea", "experiment": "C. cinerea fruiting body development, solution spread on YMG agar surface before inoculation (Example 5)", "format": "cell-based, Coprinopsis cinerea", "settings": "for Fruiting body development stage reached: 5 days light/dark cycle at 25° C.", "procedure": "FIG. 9: Effect on C. cinerea fruiting body development by GSK3 inhibitor-LiCl at different concentration. Water or LiCl solution was spread on the surface of YMG agar, before inoculation. After 6-days all dark incubation in 37° C., the plates were transferred to 25° C. with 12-hours light and 12-hours dark cycle (light/dark cycle) for 5-days incubation. […] Initials and hyphal knots formed on the plates treated with 0.75 g/L and 1.5 g/L LiCl respectively.\nFIG. 10: Effect on C. cinerea fruiting body development by GSK3 inhibitor-CHIR-99021 HCl at different concentration. Water or CHIR-99021 HCl solution was spread on the surface of YMG agar, before inoculation. After the mycelium reached the edge of plates, the plates were transferred to 25° C. with light/dark cycle for 6-days incubation.\nFIG. 11: Effect on C. cinerea fruiting body development by GSK3 activator-Cisplatin at different concentration. Water or Cisplatin solution was spread on the surface of YMG agar, before inoculation. After the mycelium reached the edge of plates, the plates were transferred to 25° C. with light/dark cycle. […] Young fruiting body developed on the control YMG plates treated with water.\nTwo GSK3 inhibitors (LiCl and CHIR-99021 HCl) and one GSK3 activator (Cisplatin) were tested in Coprinopsis cinerea, and one GSK3 inhibitor (LiCl) was tested in Pleurotus djamor (commonly known as the pink oyster mushroom). Belonging to the same order Agaricales, these two tested mushroom species are of two different families, Psathyrellaceae and Pleurotaceae, respectively.\nWater or LiCl solution was spread on the surface of YMG agar before inoculation of C. cinerea. After 6-days all dark incubation in 37° C., the plates were transferred to 25° C. with 12-hours light and 12-hours dark cycle (light/dark cycle) for 5-days incubation. […] Initials and hyphal knots were formed on the plates treated with 0.75 g/L and 1.5 g/L LiCl respectively.\nWater or CHIR-99021 HCl solution was spread on the surface of YMG agar before inoculation of C. cinerea. After the mycelium reached the edge of plates, the plates were transferred to 25° C. with light/dark cycle for 6-days incubation.\nWater or Cisplatin solution was spread on the surface of YMG agar before C. cinerea inoculation. After the mycelium reached the edge of plates, the plates were transferred to 25° C. with light/dark cycle. […] Young fruiting body developed on the control YMG plates treated with water."}, "[5]": {"settings": "cited from earlier work"}, "[6]": {"tested_on": "Pleurotus djamor", "experiment": "Self-healing ability and stability of mycelium blocks", "settings": "2 g/L LiCl in substrate; following 30 days", "procedure": "FIG. 8: Comparison of the self-healing ability between the mycelium blocks treated by heating and LiCl. The two group of mycelium blocks (e.g., Pleurotus djamor blocks) were broken in the middle. In each group, 3 blocks were spread with the solution of YMG broth and the other 3 blocks with ddH2O on the broken sites. The two parts of one block were incubated together for 3 days.\nThe self-healing ability and stability of the living material is tested by comparison of the self-healing ability between the mycelium blocks treated by heating and LiCl. To prepare the demo mycelium blocks, water (as in group “Heat”) or 2 g/L LiCl water solution (as in group “Lithium”), sawdust, wheat bran and calcium carbonate were mixed as substrate and autoclaved the substrate. Then the Pleurotus djamor was inoculated to the substrate, and incubated under 27° C. continuous dark for 7 days. Then 30 g of the mixture of mycelium and substrate were transferred into molds of block, with same volume and pressure. The blocks were incubated under 27° C. continuous dark for another 7 days. Then the blocks of “Heat” group were dried by oven, and the block of “Lithium” group were dried by dehumidifier, to the same mass of the “Heat” group.\nThe two group of mycelium blocks were broken in the middle. In each group, 3 blocks were spread with the solution of YMG broth and the other 3 blocks with ddH2O on the broken sites. […]"}, "[7]": {"tested_on": "C. cinerea", "experiment": "Mycelial growth rate of LiCl treated C. cinerea on YMG agar", "format": "cell-based, Coprinopsis cinerea", "procedure": "FIG. 3: Mycelial growth of C. cinerea with different doses of LiCl, biological triplicates were used for mean calculation.\nThe mycelial growth rate was measured for the LiCl treated C. cinerea. Biological triplicates were cultivated on YMG agar plates at 37° C. in darkness, treated with different doses of LiCl. The mycelium growth was recorded for 4 days."}, "[8]": {"tested_on": "C. cinerea", "experiment": "LiCl added at different developmental stages of C. cinerea", "format": "cell-based, Coprinopsis cinerea", "procedure": "FIG. 4: The development of C. cinerea treated with 0.1 ml of 3 g/L LiCl at different stage.\nFIG. 5: Life cycle of the mushroom-forming fungi, and the sensitive windows to the GSK-3 inhibitors (stages in grey). […] These stages are sensitive windows.\nThe effect of LiCl at different developmental stages of C. cinerea were tested. 0.1 ml of 3 g/L LiCl were added to the agar plate."}}, "note": "Entries after “also recorded” stand apart in the source; their conditions may differ.", "data": [{"compound": "[Cl-].[Li+]", "note": "[LiCl, Lithium chloride]", "values": [{"measurement": "Effect on Fruiting body development", "setting": "[1]; 1.5 g/L LiCl in agar", "value": "No"}, {"measurement": "Effect on Fruiting body development", "setting": "[1]; 1.5 g/L LiCl under agar (concentration calculated with volume of sum of agar and H2O), 8 days", "value": "produced only a few initials and stage 1 primordia; also recorded: Retarded"}, {"measurement": "Effect on Fruiting body development", "setting": "[1]; 3 g/L LiCl in agar", "value": "absence of fruiting body and No"}, {"measurement": "Effect on Fruiting body development", "setting": "[1]; 3 g/L LiCl under agar (concentration calculated with volume of sum of agar and H2O)", "value": "No"}, {"measurement": "Effect on Fruiting body development", "setting": "[1]; 6 g/L LiCl in agar", "value": "No"}, {"measurement": "Effect on Fruiting body development", "setting": "[1]; 6 g/L LiCl under agar (concentration calculated with volume of sum of agar and H2O)", "value": "No"}, {"measurement": "Fruiting body initiation", "setting": "[1]; LiCl concentration higher than 1.5 g/L, in the following 30 days", "value": "No initiation was observed"}, {"measurement": "Fruiting body initiation, dose dependence", "setting": "[1]; LiCl in agar or under agar", "value": "inhibited the fruiting body initiation in a dose-dependent manner"}, {"measurement": "Fruiting after removing or diluting LiCl", "setting": "[2]", "value": "fruiting bodies develops again"}, {"measurement": "Fruiting body development", "setting": "[3]", "value": "failed to develop fruiting body"}, {"measurement": "Fruiting body development stage reached", "setting": "[4]; 0.375 g/L LiCl", "value": "Primordium were formed"}, {"measurement": "Fruiting body development stage reached", "setting": "[4]; 0.75 g/L LiCl", "value": "Initials"}, {"measurement": "Fruiting body development stage reached", "setting": "[4]; 1.5 g/L LiCl", "value": "hyphal knots"}, {"measurement": "Fruiting body development stage reached", "setting": "[4]; 3 g/L LiCl", "value": "arrested in mycelium stage"}, {"measurement": "Mycelium growth on plate", "setting": "[4]; 6 g/L LiCl", "value": "stopped before reaching the edge of plates"}, {"measurement": "Fruiting body development stage reached", "setting": "[4]; 6 g/L LiCl", "value": "arrested in mycelium stage"}, {"measurement": "Solubility", "setting": "[5]", "value": "soluble in water, ethanol, acetone, pyridine and nitrobenzene"}, {"measurement": "Initials and fruiting bodies on mycelium blocks", "setting": "[6]", "value": "clear of initials and fruiting bodies"}, {"measurement": "Effect on Mycelium growth", "setting": "[7]; 1.5 g/L LiCl in agar", "value": "higher than control; also recorded: Acceleration"}, {"measurement": "Effect on Mycelium growth", "setting": "[7]; 3 g/L LiCl in agar", "value": "higher than control; also recorded: acceleration in mycelium growth rate"}, {"measurement": "Effect on Mycelium growth", "setting": "[7]; 6 g/L LiCl in agar", "value": "inhibit the growth of mycelium; also recorded: Retarded"}, {"measurement": "Further development after LiCl addition", "setting": "[8]; 0.1 ml of 3 g/L LiCl added at initial", "value": "led to the arrest of their development; also recorded: led to inhibition on further development; also recorded: resulted in arrestment in fruiting body development"}, {"measurement": "Further development after LiCl addition", "setting": "[8]; 0.1 ml of 3 g/L LiCl added at stage-1 primordium", "value": "led to the arrest of their development; also recorded: led to inhibition on further development; also recorded: resulted in arrestment in fruiting body development"}, {"measurement": "Further development after LiCl addition", "setting": "[8]; 0.1 ml of 3 g/L LiCl added at stage-2 primordium", "value": "could continue to develop into fruiting bodies; also recorded: cannot inhibit the fruiting body development"}, {"measurement": "Further development after LiCl addition", "setting": "[8]; 0.1 ml of 3 g/L LiCl added at young fruiting body", "value": "could continue to develop into fruiting bodies; also recorded: cannot inhibit the fruiting body development"}, {"measurement": "Further development after LiCl addition", "setting": "[8]; LiCl intervention at hyphal knot", "value": "resulted in arrestment in fruiting body development"}, {"measurement": "Further development after LiCl addition", "setting": "[8]; LiCl intervention at mycelium", "value": "resulted in arrestment in fruiting body development"}]}]}
